Common to all, as to details: Compound Concentration 10.0 uM, Hit No
Assay [1] concerns the target DNA-3-methyladenine glycosylase (Homo sapiens) (UniProt P29372).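 Further: enzyme assay where MPG cuts a quenched duplex DNA oligonucleotide probe, paired with APE1 for strand incision and turnover, read as fluorescence at 594 nm.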
Description: Inhibition of MPG by quantifying inhibition of MPG-mediated cleavage and dissociation of quenched duplex DNA oligonucleotides, measured as fluorescence at 594 nm. To generate a functional strand incision and increase turn-over this assay is coupled to APE1.
The target of assay [2] is G/T mismatch-specific thymine DNA glycosylase (Homo sapiens) (UniProt Q13569).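 Further: human TDG cleavage of quenched duplex DNA oligonucleotides coupled to APE1, strand release read as fluorescence at 594 nm, inhibition of TDG activity.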
Sequence of G/T mismatch-specific thymine DNA glycosylase (Homo sapiens) (Q13569 whole entry): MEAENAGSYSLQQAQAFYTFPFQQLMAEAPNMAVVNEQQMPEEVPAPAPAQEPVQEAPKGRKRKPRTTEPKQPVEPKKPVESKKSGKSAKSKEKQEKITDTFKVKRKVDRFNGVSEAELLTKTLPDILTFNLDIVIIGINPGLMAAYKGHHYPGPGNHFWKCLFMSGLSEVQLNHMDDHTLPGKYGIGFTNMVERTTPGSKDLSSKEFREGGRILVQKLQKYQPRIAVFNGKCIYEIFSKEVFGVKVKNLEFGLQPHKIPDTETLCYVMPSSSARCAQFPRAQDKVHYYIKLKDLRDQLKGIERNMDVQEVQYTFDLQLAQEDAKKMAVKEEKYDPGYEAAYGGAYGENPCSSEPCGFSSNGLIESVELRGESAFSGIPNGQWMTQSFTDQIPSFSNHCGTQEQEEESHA
Description: Inhibition of TDG by quantifying inhibition of TDG-mediated cleavage and dissociation of quenched duplex DNA oligonucleotides, measured as fluorescence at 594 nm. To generate a functional strand incision and increase turn-over this assay is coupled to APE1.
Assay [3] addresses T1, Single-strand selective monofunctional uracil DNA glycosylase (Homo sapiens) (UniProt Q53HV7).
T1 sequence (whole entry): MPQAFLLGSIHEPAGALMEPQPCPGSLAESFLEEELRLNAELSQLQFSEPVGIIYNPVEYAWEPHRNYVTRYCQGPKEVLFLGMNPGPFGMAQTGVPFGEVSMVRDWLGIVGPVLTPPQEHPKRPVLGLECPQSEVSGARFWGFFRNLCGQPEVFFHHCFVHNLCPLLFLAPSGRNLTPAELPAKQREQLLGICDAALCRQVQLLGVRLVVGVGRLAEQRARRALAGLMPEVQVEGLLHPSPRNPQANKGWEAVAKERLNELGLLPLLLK
Description: Inhibition of SMUG1 by quantifying inhibition of SMUG1-mediated cleavage and dissociation of quenched duplex DNA oligonucleotides, measured as fluorescence at 594 nm. To generate a functional strand incision and increase turn-over this assay is coupled to APE1.

The target of assay [4] is Endonuclease 8-like 1 (Homo sapiens) (UniProt Q96FI4).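 Further: fluorescence at 594 nm from quenched duplex DNA oligonucleotides released by NEIL1 cleavage and strand separation, reported as reduction of this enzyme activity.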
Sequence of Endonuclease 8-like 1 (Homo sapiens) (Q96FI4 whole entry): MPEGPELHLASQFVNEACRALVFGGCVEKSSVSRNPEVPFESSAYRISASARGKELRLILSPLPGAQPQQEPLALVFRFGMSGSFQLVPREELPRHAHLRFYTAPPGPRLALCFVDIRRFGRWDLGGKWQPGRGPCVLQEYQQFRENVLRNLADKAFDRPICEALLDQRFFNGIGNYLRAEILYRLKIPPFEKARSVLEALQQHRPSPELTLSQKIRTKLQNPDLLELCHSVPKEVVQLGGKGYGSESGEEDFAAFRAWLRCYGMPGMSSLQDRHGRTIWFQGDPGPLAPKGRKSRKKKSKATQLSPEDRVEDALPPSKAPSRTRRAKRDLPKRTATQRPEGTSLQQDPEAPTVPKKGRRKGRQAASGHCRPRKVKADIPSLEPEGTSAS
Description: Inhibition of NEIL1 by quantifying inhibition of NEIL1-mediated cleavage and dissociation of quenched duplex DNA oligonucleotides, measured as fluorescence at 594 nm.
In assay [5] the target is T2, Adenine DNA glycosylase (Homo sapiens) (UniProt Q9UIF7).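 Further: human MUTYH activity read as 594 nm fluorescence from cleavage and release of a quenched DNA duplex, coupled with APE1 for strand incision, lower signal meaning inhibition.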
T2 sequence (whole entry): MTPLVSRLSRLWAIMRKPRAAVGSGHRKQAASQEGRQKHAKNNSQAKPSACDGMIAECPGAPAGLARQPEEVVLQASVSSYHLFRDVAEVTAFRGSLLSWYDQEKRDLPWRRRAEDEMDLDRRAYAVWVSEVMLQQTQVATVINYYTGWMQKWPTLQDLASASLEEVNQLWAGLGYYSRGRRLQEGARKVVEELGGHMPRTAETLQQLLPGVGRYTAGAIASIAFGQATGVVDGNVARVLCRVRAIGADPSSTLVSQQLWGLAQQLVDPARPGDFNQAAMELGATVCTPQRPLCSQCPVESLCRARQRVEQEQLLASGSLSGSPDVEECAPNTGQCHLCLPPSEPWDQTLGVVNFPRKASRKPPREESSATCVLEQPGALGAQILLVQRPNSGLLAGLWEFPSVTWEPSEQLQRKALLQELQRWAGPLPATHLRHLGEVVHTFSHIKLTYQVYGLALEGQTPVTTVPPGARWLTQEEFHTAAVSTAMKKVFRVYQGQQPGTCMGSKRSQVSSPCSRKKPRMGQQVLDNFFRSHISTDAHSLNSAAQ
Description: Inhibition of MUTYH by quantifying inhibition of MUTYH-mediated cleavage and dissociation of quenched duplex DNA oligonucleotides, measured as fluorescence at 594 nm. To generate a functional strand incision and increase turn-over this assay is coupled to APE1.

For assay [6], the target named is T3, Endonuclease 8-like 2 (Homo sapiens) (UniProt Q969S2).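 Further: fluorescence at 594 nm reports NEIL2 cutting and release of a quenched double-stranded DNA oligo substrate, reduced signal read as inhibition.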
T3 sequence (whole entry): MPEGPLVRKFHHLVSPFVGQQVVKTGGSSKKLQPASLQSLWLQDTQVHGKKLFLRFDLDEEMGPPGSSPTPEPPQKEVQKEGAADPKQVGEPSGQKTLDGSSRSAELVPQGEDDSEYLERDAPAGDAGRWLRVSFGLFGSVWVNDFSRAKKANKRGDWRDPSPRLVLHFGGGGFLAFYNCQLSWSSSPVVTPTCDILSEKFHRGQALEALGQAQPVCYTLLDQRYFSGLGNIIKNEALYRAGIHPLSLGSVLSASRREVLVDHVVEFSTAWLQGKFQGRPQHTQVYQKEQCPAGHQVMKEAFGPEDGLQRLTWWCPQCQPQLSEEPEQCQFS
Description: Inhibition of NEIL2 by quantifying inhibition of NEIL2-mediated cleavage and dissociation of quenched duplex DNA oligonucleotides, measured as fluorescence at 594 nm.

Assay [7] deals with N-glycosylase/DNA lyase (Homo sapiens) (UniProt O15527).
Sequence of N-glycosylase/DNA lyase (Homo sapiens) (O15527 whole entry): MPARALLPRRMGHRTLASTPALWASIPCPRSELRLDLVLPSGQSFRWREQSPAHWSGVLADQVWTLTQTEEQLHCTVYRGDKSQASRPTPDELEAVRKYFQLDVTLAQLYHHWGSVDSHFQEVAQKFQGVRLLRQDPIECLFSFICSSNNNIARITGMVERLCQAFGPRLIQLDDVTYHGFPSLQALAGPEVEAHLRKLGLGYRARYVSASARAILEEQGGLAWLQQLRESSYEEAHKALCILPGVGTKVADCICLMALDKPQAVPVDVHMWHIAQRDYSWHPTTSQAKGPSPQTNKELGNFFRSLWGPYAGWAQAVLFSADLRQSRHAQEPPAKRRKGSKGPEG
Description: Inhibition of OGG1 by quantifying inhibition of OGG1-mediated cleavage and dissociation of quenched duplex DNA oligonucleotides, measured as fluorescence at 594 nm. To generate a functional strand incision and increase turn-over this assay is coupled to APE1.
Assay [8] concerns the target Uracil-DNA glycosylase (Homo sapiens) (UniProt P13051).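 Further: UNG excision on a quenched double-stranded DNA oligo probe, with APE1 added for strand incision and turnover, read as fluorescence at 594 nm as strands separate.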
Description: Inhibition of UNG by quantifying inhibition of UNG-mediated cleavage and dissociation of quenched duplex DNA oligonucleotides, measured as fluorescence at 594 nm. To generate a functional strand incision and increase turn-over this assay is coupled to APE1.
In assay [9] the target is T4, Endonuclease III-like protein 1 (Homo sapiens) (UniProt P78549).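 Further: enzyme assay tracking NTHL1 cutting and release of a quenched double-stranded DNA oligo substrate, read as fluorescence at 594 nm.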
T4 sequence (whole entry): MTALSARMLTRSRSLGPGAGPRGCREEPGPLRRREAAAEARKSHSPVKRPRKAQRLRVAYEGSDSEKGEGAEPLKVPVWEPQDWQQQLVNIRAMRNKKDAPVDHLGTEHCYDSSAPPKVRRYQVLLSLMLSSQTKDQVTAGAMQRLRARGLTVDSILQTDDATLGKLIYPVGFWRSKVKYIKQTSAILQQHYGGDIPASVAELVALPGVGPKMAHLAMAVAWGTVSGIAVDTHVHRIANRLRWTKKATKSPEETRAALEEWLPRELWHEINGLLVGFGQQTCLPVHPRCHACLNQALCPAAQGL
Description: Inhibition of NTHL1 by quantifying inhibition of NTHL1-mediated cleavage and dissociation of quenched duplex DNA oligonucleotides, measured as fluorescence at 594 nm.

Sequence of DNA-3-methyladenine glycosylase (Homo sapiens) (P29372 whole entry): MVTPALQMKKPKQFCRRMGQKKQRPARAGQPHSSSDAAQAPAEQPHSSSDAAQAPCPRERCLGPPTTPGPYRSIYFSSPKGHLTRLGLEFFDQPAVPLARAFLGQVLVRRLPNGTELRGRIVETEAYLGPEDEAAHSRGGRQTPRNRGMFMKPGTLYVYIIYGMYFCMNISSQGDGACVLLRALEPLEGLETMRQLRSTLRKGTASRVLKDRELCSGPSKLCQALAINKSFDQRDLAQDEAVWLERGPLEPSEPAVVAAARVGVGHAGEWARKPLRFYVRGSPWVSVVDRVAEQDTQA
Sequence of Uracil-DNA glycosylase (Homo sapiens) (P13051 whole entry): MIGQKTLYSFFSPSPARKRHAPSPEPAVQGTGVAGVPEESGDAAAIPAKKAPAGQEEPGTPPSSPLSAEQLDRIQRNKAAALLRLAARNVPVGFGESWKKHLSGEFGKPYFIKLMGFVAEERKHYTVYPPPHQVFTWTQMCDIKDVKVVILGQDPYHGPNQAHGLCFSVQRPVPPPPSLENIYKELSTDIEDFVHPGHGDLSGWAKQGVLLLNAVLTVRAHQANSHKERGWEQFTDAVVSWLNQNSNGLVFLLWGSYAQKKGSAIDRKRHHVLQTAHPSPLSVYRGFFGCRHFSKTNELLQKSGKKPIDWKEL

Consider `CC(C)(C(=O)O)c1ccc(C(O)CCCN2CCC(C(O)(c3ccccc3)c3ccccc3)CC2)cc1` (configuration not stated), for which the inhibition (in general, the drop in the measured response relative to a control, in per cent) in [1] was -4.6%; in assay [2] it was 8.16%; in assay [3], -3.57%; in assay [4] it was -7.32%; in assay [5] it was -0.107%; in assay [6], 8%. Also, the inhibition was -9.14% in assay [7], -8.82% in [8] and 2.66% in assay [9].
For the compound `O=C(Nc1cccc(C(F)(F)F)c1)c1cc(Cl)ccc1O`, the inhibition was 23.5% in [1]; 4.24% in [2]; 0.608% in assay [3]; -4.58% in assay [4]; 0.595% in [5]; -5.45% in assay [6]. In addition, the inhibition is -6.43% in [7], -2.86% in assay [8] and 5.52% in [9].
Regarding `Cc1ccc(S(=O)(=O)Nc2ccc(-n3nc(C(F)(F)F)cc3C(F)(F)F)cc2)cc1`, the inhibition in assay [1] was 20%; in assay [3] it was 19.1%; in assay [4], 3.57%; in [5], -4.85%; in assay [6], 5%; in [7] it was 21.7%. Also, the inhibition in assay [8] was -1.93%; in assay [9], 16.2%.
Consider `CC[S+]([O-])c1nc(-c2cccc(OCc3ccccc3)c2)cc(C(F)(F)F)n1` (configuration not stated), for which the inhibition in [1] is -6.11%; in assay [2], 4.54%; in assay [3] it was 4.67%; in assay [4], 5.43%; in [5], -4.2%; in assay [6] it was 10.8%. The inhibition in [7] was 6.41%; in assay [8], -7.73%; in assay [9] it was -3.94%.
Turning to `C[C@@H](OC[C@@]1(c2ccccc2)CC[C@]2(CCC(=O)N2)CN1)c1cc(C(F)(F)F)cc(C(F)(F)F)c1`, the inhibition in assay [1] was -7.57%; in assay [2], 9.1%; in [3], -1.58%; in assay [4], -1.98%; in assay [5] it was 10.9%; in assay [6], 6.75%. The inhibition was -0.784% in assay [7], -7.13% in [8] and -6.14% in assay [9].
In the case of `CC(C)c1ccc(CC(=O)N[C@H](C)c2ccc(OCC(F)(F)F)cn2)cc1`, the inhibition was 9.35% in assay [1]; -9.7% in assay [2]; 4.45% in assay [3]; 3.42% in [4]; -5.06% in [5]; -3.66% in [6]. For the same compound, the inhibition in assay [7] is -4.46%; in assay [8] it was -0.689%; in [9], 8%.
In the case of `C/N=C(/NC#N)NCCSCc1csc(NC(=N)N)n1`, the inhibition in [1] is -5.07%; in assay [2], 1.2%; in assay [3], -3.81%; in [4] it was -6.13%; in assay [5], -6.76%; in assay [7] it was -8.12%. Moreover, the inhibition in [9] was -9.8%.
Take `CN(C)CC[C@@H](c1ccc(Cl)cc1)c1ccccn1`: the inhibition was 0.18% in [1]; 6.86% in assay [2]; -2.28% in assay [4]; 11.5% in assay [5]; 12% in assay [6]; -3.11% in assay [7]. The inhibition in [8] was -8.86%; in assay [9], 6.32%.
For the compound `COC(c1ccccc1)(c1ccccc1)[C@H](Oc1nc(C)cc(C)n1)C(=O)O`, the inhibition in assay [1] was 4.85%; in assay [2] it was 14.5%; in [3], -3.28%; in assay [4], 9.14%; in assay [5], 23.3%; in assay [6], 10.8%. Moreover, the inhibition in assay [7] is 1.14%; in assay [8], -5.94%; in assay [9] it was 6.32%.
As to `CCCCCCCC/C=C\CCCCCCCC(N)=O`, the inhibition is 17.3% in assay [1]; 12.1% in assay [2]; -2.07% in assay [3]; 12.4% in assay [4]; 15.9% in assay [5]; 2.51% in assay [6]. Further, the inhibition is 4.44% in assay [7], -8.52% in assay [8] and 2.66% in assay [9].
As for `O=C(Nc1cc(C(F)(F)F)cc(C(F)(F)F)c1)c1cc(Cl)ccc1O`, the inhibition was 9.82% in assay [1]; 4.73% in [3]; 1.2% in [4]; -9.19% in [5]; -3.41% in assay [6]; 28.6% in [7]. Also, the figures for the inhibition in assay [8] and in [9] were -1.16% and 6.35%, respectively.
In the case of `O=c1ccn([C@@H]2O[C@H](COP(=O)(O)OP(=O)(O)OP(=O)(O)OP(=O)(O)OC[C@H]3O[C@@H](n4ccc(=O)[nH]c4=O)[C@H](O)[C@@H]3O)[C@@H](O)[C@H]2O)c(=O)[nH]1`, the inhibition in assay [1] is 0.18%; in [2] it was 3.7%; in [4], 3.21%; in [5] it was -6.25%; in [6] it was -3.48%; in assay [7] it was -1.8%. Further, the inhibition in assay [9] stood at 20.2%.
Consider `NC(=O)c1ccc(CNC(=O)NC[C@H]2CN(Cc3ccc(Cl)c(Cl)c3)CCO2)cc1`, for which the inhibition was -0.36% in assay [1]; 19.2% in assay [2]; 7.06% in [4]; 5.52% in [5]; 16.2% in assay [6]; -7.25% in assay [7]. Besides, the inhibition in assay [9] is 15.8%.
On to `COc1ccc(C2(O)OC(=O)C(c3ccc4c(c3)OCO4)=C2Cc2cc(OC)c(OC)c(OC)c2)cc1` (configuration not stated), for which the inhibition was 13.2% in [1]; 8.23% in assay [2]; -4.95% in assay [4]; 22.7% in assay [5]; -9.68% in assay [7]; -1.01% in [8]. The inhibition in assay [9] came out at 15.1%.
For `Cc1ccccc1-c1cc(N2CCN(C)CC2)ncc1N(C)C(=O)C(C)(C)c1cc(C(F)(F)F)cc(C(F)(F)F)c1`, the inhibition is -7.15% in assay [1]; -5.37% in assay [2]; 0.537% in [4]; -1.13% in assay [5]; 1.76% in assay [6]; -7.29% in assay [7]. In addition, the inhibition in [9] was determined as 21.7%.
On to `CC(C)NCC(O)c1ccc(N)c(C#N)c1` (configuration not stated), for which the inhibition in [1] is 0.373%; in assay [2] it was -4.14%; in assay [3], -9.04%; in assay [4], -4.21%; in assay [5], 4.24%; in assay [6], -8.72%. The inhibition is -2.67% in [7] and 12.9% in assay [9].
For `CCC(=O)OCC(=O)[C@@]1(OC(=O)CC)[C@@H](C)C[C@H]2[C@@H]3CCC4=CC(=O)C=C[C@]4(C)[C@@]3(Cl)[C@@H](O)C[C@@]21C`, the inhibition was 2.96% in assay [1]; -4.42% in [2]; 7.21% in [4]; 11.3% in assay [5]; 7% in assay [6]; -5.93% in assay [7]. The inhibition in assay [9] is 22.4%.
